Measurements reported in US20030055065A1, “Tricyclic amide and urea compounds useful for inhibition of G-protein function and for treatment of proliferative diseases” (priority 1993, published 2003).
Where “and” joins values, the source holds several entries; their conditions need not be identical. Equal entries are not always repeated. Where two headings read alike, the source gives them in different places.

Assays:
[1] = tested on: Ras-CVLS processing in COS monkey kidney cells; experiment: COS cell assay: Ras-CVLS processing (Western blot); assay type: cell-based; conditions: Primates, COS
How it was run: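 COS cells electroporated with Ras-CVLS (farnesyl transferase substrate) cDNA, with drug-containing fresh medium added at 24 h and cells examined at 48 h. TCA-precipitated cellular protein was resolved by SDS gel and immunoblotted with anti-p21 Ras monoclonal and HRP anti-rat IgG to monitor Ras processing.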

[2] = tested on: Ras-CVLL processing in COS monkey kidney cells; experiment: COS cell assay: Ras-CVLL processing (geranylgeranylation); assay type: cell-based; conditions: concentrations up to 20 μg/mL
Text: (§1) 2. Cell-Based Assay: Transient expression of val^12-Ha-Ras-CVLS and val^12-Ha-Ras-CVLL in COS monkey kidney cells: Effect of farnesyl protein transferase inhibitors on Ras processing and on disordered cell growth induced by transforming Ras.
COS monkey kidney cells were transfected by electroporation with the plasmid pSV-SPORT (Gibco/BRL) containing a cDNA insert encoding either Ras-CVLS or Ras-CVLL, leading to transient overexpression of a Ras substrate for either farnesyl protein transferase or geranylgeranyl protein transferase I, respectively (see above). […]
Membranes were blocked by incubation overnight at 4° C. in PBS containing 2.5% dried milk and 0.5% Tween-20 and then incubated with a Ras-specific monoclonal antibody, Y13-259 (Furth, M. E., et al., (1982), Monoclonal antibodies to the p21 products of the transforming gene of Harvey murine sarcome virus and of the cellular ras gene family, J. Virol. 43: 294-304), in PBS containing 1% fetal calf serum for one hour at room temperature. […] The presence of processed and unprocessed Ras-CVLS or Ras-CVLL was detected using a colorimetric peroxidase reagent (4-chloro-1-naphthol) as described by the manufacturer (Bio-Rad).

[3] = tested on: COS monkey kidney cells expressing val12-Ha-Ras-CVLS; experiment: COS cell assay: disordered cell growth / morphological changes induced by Ras-CVLS; assay type: cell-based
Text: as §1
(§2) COS monkey kidney cells were transfected by electroporation with the plasmid pSV-SPORT (Gibco/BRL) containing a cDNA insert encoding either Ras-CVLS or Ras-CVLL, leading to transient overexpression of a Ras substrate for either farnesyl protein transferase or geranylgeranyl protein transferase I, respectively (see above).
(§3) Following electroporation, cells were plated into 6-well tissue culture dishes containing 1.5 ml of Dulbecco's-modified Eagle's media (GIBCO, Inc.) supplemented with 10% fetal calf serum and the appropriate farnesyl protein transferase inhibitors. After 24 hours, media was removed and fresh media containing the appropriate drugs was re-added.
(§4) 48 hours after electroporation cells were examined under the microscope to monitor disordered cell growth induced by transforming Ras. Cells expressing transforming Ras become more rounded and refractile and overgrow the monolayer, reminiscent of the transformed phenotype. […]

[4] = tested on: COS monkey kidney cells expressing val12-Ha-Ras-CVLL; experiment: COS cell assay: disordered cell growth / morphological changes induced by Ras-CVLL; assay type: cell-based; conditions: 20 μg/mL
Text: as §1, §2, §3, §4

[5] = tested on: T24-BAG4 human bladder carcinoma cells expressing an activated H-ras gene; experiment: Cell Mat Assay: tumor cell colony inhibition (tIC50); assay type: cell-based; conditions: Homo sapiens, inhibition of tumor cell growth
How it was run: (§5)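 Serial compound dilutions added 24 h after planting T24-BAG4 cells onto a mat of normal cells, then 14 d colony growth; monolayers glutaraldehyde-fixed and tumor cells X-Gal stained. tIC50 and mIC50 from microscope counts of colonies, cells per colony and mat cell density.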

[6] = target: T1, farnesyl protein transferase (FPT), partially purified from rat brain (Rattus norvegicus, UniProt Q02293+Q04631); experiment: Inhibition of farnesyl protein transferase (transfer of [3H]farnesyl to Ras-CVLS); assay type: biochemical; conditions: read-out: FPT IC50
T1 construct: were partially purified from rat brain by ammonium sulfate fractionation followed by Q-Sepharose
How it was run: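 Transfer of [3H]farnesyl onto E. coli-expressed, His6-tagged Ras-CVLS was measured after 30 min at room temperature. Radiolabelled Ras was TCA-precipitated on ice and filter-harvested, and inhibition was expressed as percent of DMSO control.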

[7] = target: T2, geranylgeranyl protein transferase (GGPT) I (Rattus norvegicus, UniProt P53610+Q04631); experiment: Inhibition of geranylgeranyl protein transferase I (Ras-CVLL as acceptor); assay type: biochemical
T2 construct: were partially purified from rat brain by ammonium sulfate fractionation followed by Q-Sepharose
How it was run: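 Rat brain GGPT I, partially purified by ammonium sulfate fractionation and anion exchange, was assayed with [3H]geranylgeranyl pyrophosphate as isoprenoid donor. The acceptor was E. coli-expressed His6-tagged val12-Ha-Ras ending in CVLL. The protocol otherwise matched the farnesyl protein transferase assay.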

[8] = tested on: Normal human HEPM fibroblasts; experiment: Cell Mat Assay: density of mat cells (mIC50); assay type: cell-based; conditions: Homo sapiens, Fibroblast
How it was run: as §5

[9] = tested on: M27 (mouse Lewis lung carcinoma); experiment: In vivo anti-tumor study, M27; design: species or system athymic nu/nu female mice; conditions: s.c. tumor M27; po, BID, 1-7, ×4
Text: In vivo Anti-tumor Studies

[10] = tested on: A431 (human epidermal carcinoma); experiment: In vivo anti-tumor study, A431; design: species or system athymic nu/nu female mice; concentration or dose not given beside the values; conditions: s.c. tumor A431; ip, BID, 1-5, ×4
[11] = tested on: SW620 (human colon adenocarcinoma [lymph node metastasis]); experiment: In vivo anti-tumor study, SW620; design: species or system athymic nu/nu female mice; percent inhibition of tumor growth relative to vehicle controls: concentration or dose not given beside the values; conditions: s.c. tumor SW-620, BID
[12] = tested on: C-f-1 (mouse fibroblast transformed with c-fos oncogene); experiment: In vivo anti-tumor study, C-f-1; design: species or system athymic nu/nu female mice; concentration or dose not given beside the values; conditions: s.c. tumor C-f-1, BID
[13] = COS cells, read-out: Inhibition of Ras Processing IC50

T2 sequence (P53610 whole entry, one chain of several): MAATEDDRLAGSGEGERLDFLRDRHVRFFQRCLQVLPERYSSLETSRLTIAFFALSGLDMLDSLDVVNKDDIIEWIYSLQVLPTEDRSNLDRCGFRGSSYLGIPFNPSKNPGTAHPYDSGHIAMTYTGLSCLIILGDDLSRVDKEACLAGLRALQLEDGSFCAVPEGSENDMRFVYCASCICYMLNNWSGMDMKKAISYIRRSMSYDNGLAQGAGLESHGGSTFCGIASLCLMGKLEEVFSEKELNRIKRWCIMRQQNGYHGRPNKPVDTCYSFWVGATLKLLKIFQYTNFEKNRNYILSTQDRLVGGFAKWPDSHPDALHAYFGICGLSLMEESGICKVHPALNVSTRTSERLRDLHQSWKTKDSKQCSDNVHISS
T1 sequence (Q02293 whole entry, one chain of several): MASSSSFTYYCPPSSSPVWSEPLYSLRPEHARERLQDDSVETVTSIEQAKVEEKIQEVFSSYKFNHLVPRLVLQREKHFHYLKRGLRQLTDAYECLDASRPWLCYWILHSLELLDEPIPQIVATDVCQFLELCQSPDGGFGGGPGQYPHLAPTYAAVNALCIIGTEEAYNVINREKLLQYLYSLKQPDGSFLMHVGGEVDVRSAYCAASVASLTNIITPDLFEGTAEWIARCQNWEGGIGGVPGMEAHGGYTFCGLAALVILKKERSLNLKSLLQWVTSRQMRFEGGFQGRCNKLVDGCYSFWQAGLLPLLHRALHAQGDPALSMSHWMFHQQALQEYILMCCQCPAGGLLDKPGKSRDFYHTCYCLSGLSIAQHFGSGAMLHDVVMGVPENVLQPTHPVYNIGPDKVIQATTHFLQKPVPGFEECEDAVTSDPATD

Compound: O=C(Cc1ccncc1)N1CCC(=C2c3ccc(Cl)cc3CCc3cccnc32)CC1 [Example 1, 1-(4-pyridylacetyl)-4-(8-chloro-5,6-dihydro-11H-benzo[5,6]cyclohepta[1,2-b]pyridin-11-ylidene)piperidine]
- IC50 [1, 13]: 1000 nM
- IC50 ([1]; Ras-transfected COS cells, read-out: Ras-CVLS processing IC50): 1 µM and 0.44 µg/mL
- geranylgeranylation of Ras-CVLL [2]: did not block
- morphological changes induced by Ras-CVLS ([3]; at 0.2 or 0.5 μg/mL): little effect
- morphological changes induced by Ras-CVLS ([3]; concentration range of 2 to 20 μg/mL): inhibited the morphological changes induced by Ras-CVLS in a dose-dependent manner
- morphological changes induced by Ras-CVLL [4]: did not prevent the morphological changes
- IC50 [5]: 3100 nM

Compound: O=C(CN1C(=O)c2ccccc2C1=O)N1CCC(=C2c3ccc(Cl)cc3CCc3cccnc32)CC1 [Example 3]
- IC50 ([6]; Ras-CVLS farnesylation, partially purified rat brain FPT): 660 nM
- IC50 ([6]; enzyme inhibition): 660 nM
- selective for FPT inhibition (over GGPT) ([7]; FPT versus GGPT): at least 59 fold
- inhibition at 39 µM ([7]; at 39 μM, Ras-CVLL as isoprenoid acceptor): 3%
- IC50 ([7]; enzyme inhibition): > 39000 nM
- IC50 [1, 13]: > 10000 nM
- IC50 [5]: > 50000 nM
- IC50 [8]: > 50000 nM
- percent inhibition of tumor growth relative to vehicle controls [9]: 27.3%
- percent inhibition of tumor growth relative to vehicle controls [10]: 0%
- percent inhibition of tumor growth relative to vehicle controls ([11]; ip, 1-5, ×4): 27%
- percent inhibition of tumor growth relative to vehicle controls ([11]; po, 1-5, ×2): 15.8%
- percent inhibition of tumor growth relative to vehicle controls ([12]; ip, 1-5, ×2): 8%
- percent inhibition of tumor growth relative to vehicle controls ([12]; po, 1-5, ×4): 0%
